Experimental data: PubChem BioAssay (NCI)
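A five-concentration, 48-hour dose response in 96-well plates underlies each endpoint, interpolated linearly between surrounding concentrations. TGI denotes the concentration required for complete inhibition of growth.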

Tests used:
Test in all cases: growth of human tumour cells (NCI), 48 h
[1] = tested on: 786-0 renal
[2] = tested on: A498 renal
[3] = tested on: A549 NSCLC
[4] = tested on: ACHN renal
[5] = tested on: BT-549 breast
[6] = tested on: CAKI-1 renal
[7] = tested on: CCRF-CEM leukemia
[8] = tested on: COLO 205 colon
[9] = tested on: DU-145 prostate
[10] = tested on: EKVX NSCLC
[11] = tested on: HCC-2998 colon
[12] = tested on: HCT-116 colon
[13] = tested on: HCT-15 colon
[14] = tested on: HL-60(TB) leukemia
[15] = tested on: HOP-62 NSCLC
[16] = tested on: HOP-92 NSCLC
[17] = tested on: HS 578T breast
[18] = tested on: HT29 colon
[19] = tested on: IGROV1 ovarian
[20] = tested on: K-562 leukemia
[21] = tested on: KM12 colon
[22] = tested on: LOX IMVI melanoma
[23] = tested on: M14 melanoma
[24] = tested on: MALME-3M melanoma
[25] = tested on: MCF7 breast
[26] = tested on: MDA-MB-435
[27] = tested on: MDA-N
[28] = tested on: MOLT-4 leukemia
[29] = tested on: NCI-H226 lung
[30] = tested on: NCI-H23 lung
[31] = tested on: NCI-H460 lung
[32] = tested on: NCI-H522 lung
[33] = tested on: NCI/ADR-RES ovarian
[34] = tested on: OVCAR-3 ovarian
[35] = tested on: OVCAR-4 ovarian
[36] = tested on: OVCAR-5 ovarian
[37] = tested on: OVCAR-8 ovarian
[38] = tested on: PC-3 prostate
[39] = tested on: RPMI-8226 leukemia
[40] = tested on: RXF 393 renal
[41] = tested on: SF-268 CNS
[42] = tested on: SF-295 CNS
[43] = tested on: SF-539 CNS
[44] = tested on: SK-MEL-2 melanoma
[45] = tested on: SK-MEL-28 melanoma
[46] = tested on: SK-MEL-5 melanoma
[47] = tested on: SK-OV-3 ovarian
[48] = tested on: SN12C renal
[49] = tested on: SNB-19 CNS
[50] = tested on: SNB-75 CNS
[51] = tested on: SR leukemia
[52] = tested on: SW-620 colon
[53] = tested on: T-47D breast
[54] = tested on: TK-10 renal
[55] = tested on: U251 CNS
[56] = tested on: UACC-257 melanoma
[57] = tested on: UACC-62 melanoma
[58] = tested on: UO-31 renal
[59] = tested on: MDA-MB-231 breast

## NC(=S)N1N=C(c2ccc3c(c2)CCC3)CC1c1ccccc1 (stereo not given)
[1]
  TGI: > 100 µM
[2]
  TGI: 29.2 µM
[3]
  TGI: > 100 µM
[4]
  TGI: > 100 µM
[5]
  TGI: 98.3 µM
[6]
  TGI: > 100 µM
[7]
  TGI: > 100 µM
[8]
  TGI: 50.8 µM
[9]
  TGI: 80.8 µM
[10]
  TGI: > 100 µM
[11]
  TGI: 36.8 µM
[12]
  TGI: 87.6 µM
[13]
  TGI: 69.6 µM
[14]
  TGI: 44.5 µM
[15]
  TGI: 87 µM
[16]
  TGI: 85.7 µM
[17]
  TGI: > 100 µM
[18]
  TGI: > 100 µM
[19]
  TGI: > 100 µM
[20]
  TGI: > 100 µM
[21]
  TGI: > 100 µM
[22]
  TGI: > 100 µM
[23]
  TGI: > 100 µM
[24]
  TGI: 74.4 µM
[25]
  TGI: 45.2 µM
[26]
  TGI: 96.9 µM
[27]
  TGI: > 100 µM
[28]
  TGI: > 100 µM
[29]
  TGI: > 100 µM
[30]
  TGI: 95.5 µM
[31]
  TGI: 64.9 µM
[32]
  TGI: 24.7 µM
[33]
  TGI: 58.6 µM
[34]
  TGI: 55.8 µM
[35]
  TGI: 85.2 µM
[36]
  TGI: > 100 µM
[37]
  TGI: > 100 µM
[38]
  TGI: 87.8 µM
[39]
  TGI: 51.7 µM
[40]
  TGI: 28 µM
[41]
  TGI: > 100 µM
[42]
  TGI: 68.3 µM
[43]
  TGI: 43 µM
[44]
  TGI: 36.2 µM
[45]
  TGI: > 100 µM
[46]
  TGI: 31.3 µM
[47]
  TGI: 88.6 µM
[48]
  TGI: > 100 µM
[49]
  TGI: > 100 µM
[50]
  TGI: 56.1 µM
[51]
  TGI: 95.5 µM
[52]
  TGI: > 100 µM
[53]
  TGI: 27.9 µM
[54]
  TGI: 87.1 µM
[55]
  TGI: 63.5 µM
[56]
  TGI: 86.9 µM
[57]
  TGI: 74.1 µM
[58]
  TGI: > 100 µM

## OCC1=C[C@@](COCc2ccccc2)(OCc2ccccc2)[C@@H](OCc2ccccc2)[C@@H]1OCc1ccccc1
[1]
  TGI: 52.9 µM
[2]
  TGI: 31.8 µM
[3]
  TGI: 67.3 µM
[4]
  TGI: > 100 µM
[5]
  TGI: 98.1 µM
[6]
  TGI: 45.1 µM
[7]
  TGI: 11 µM
[8]
  TGI: 23.9 µM
[9]
  TGI: > 100 µM
[10]
  TGI: 51.4 µM
[11]
  TGI: 32.3 µM
[12]
  TGI: 47 µM
[13]
  TGI: 57.8 µM
[14]
  TGI: 65.9 µM
[15]
  TGI: 70.6 µM
[17]
  TGI: 87.6 µM
[18]
  TGI: 35.6 µM
[19]
  TGI: 38.5 µM
[20]
  TGI: 50.6 µM
[21]
  TGI: 56.6 µM
[22]
  TGI: 21.9 µM
[23]
  TGI: > 100 µM
[24]
  TGI: 44.6 µM
[25]
  TGI: 23.8 µM
[59]
  TGI: 25.4 µM
[26]
  TGI: 27.4 µM
[27]
  TGI: 53.6 µM
[28]
  TGI: 8.89 µM
[29]
  TGI: 35.3 µM
[30]
  TGI: 38.8 µM
[31]
  TGI: 53.1 µM
[32]
  TGI: 51 µM
[33]
  TGI: 16.9 µM
[34]
  TGI: 27.3 µM
[35]
  TGI: 73.3 µM
[36]
  TGI: 60.3 µM
[37]
  TGI: > 100 µM
[38]
  TGI: 55.5 µM
[39]
  TGI: 7.33 µM
[40]
  TGI: 18.4 µM
[41]
  TGI: > 100 µM
[42]
  TGI: 46.7 µM
[44]
  TGI: 39.3 µM
[45]
  TGI: > 100 µM
[46]
  TGI: 30.5 µM
[48]
  TGI: 10.3 µM
[49]
  TGI: > 100 µM
[51]
  TGI: 33.4 µM
[52]
  TGI: > 100 µM
[53]
  TGI: 82.8 µM
[54]
  TGI: > 100 µM
[55]
  TGI: 25.6 µM
[56]
  TGI: 67.6 µM
[57]
  TGI: 39 µM
[58]
  TGI: 67.1 µM

## NC(=O)Nc1n[nH]c(-c2ccccc2)n1
[1]
  TGI: > 100 µM
[2]
  TGI: > 100 µM
[3]
  TGI: > 100 µM
[4]
  TGI: > 100 µM
[5]
  TGI: > 100 µM
[6]
  TGI: > 100 µM
[7]
  TGI: > 100 µM
[8]
  TGI: > 100 µM
[9]
  TGI: > 100 µM
[10]
  TGI: > 100 µM
[11]
  TGI: > 100 µM
[12]
  TGI: > 100 µM
[13]
  TGI: > 100 µM
[14]
  TGI: > 100 µM
[15]
  TGI: > 100 µM
[17]
  TGI: > 100 µM
[18]
  TGI: > 100 µM
[19]
  TGI: > 100 µM
[20]
  TGI: > 100 µM
[21]
  TGI: > 100 µM
[22]
  TGI: > 100 µM
[23]
  TGI: > 100 µM
[24]
  TGI: > 100 µM
[25]
  TGI: > 100 µM
[59]
  TGI: > 100 µM
[26]
  TGI: > 100 µM
[27]
  TGI: > 100 µM
[28]
  TGI: > 100 µM
[29]
  TGI: > 100 µM
[30]
  TGI: > 100 µM
[31]
  TGI: > 100 µM
[32]
  TGI: > 100 µM
[33]
  TGI: > 100 µM
[34]
  TGI: > 100 µM
[35]
  TGI: > 100 µM
[36]
  TGI: > 100 µM
[37]
  TGI: > 100 µM
[38]
  TGI: > 100 µM
[39]
  TGI: > 100 µM
[40]
  TGI: > 100 µM
[41]
  TGI: > 100 µM
[42]
  TGI: > 100 µM
[43]
  TGI: > 100 µM
[44]
  TGI: > 100 µM
[45]
  TGI: > 100 µM
[46]
  TGI: > 100 µM
[47]
  TGI: > 100 µM
[48]
  TGI: > 100 µM
[49]
  TGI: > 100 µM
[50]
  TGI: > 100 µM
[52]
  TGI: > 100 µM
[53]
  TGI: > 100 µM
[54]
  TGI: > 100 µM
[55]
  TGI: > 100 µM
[56]
  TGI: > 100 µM
[57]
  TGI: > 100 µM
[58]
  TGI: > 100 µM
